Data from patent US5137922A (priority 1989, dated 1992).
Read-outs that look alike come from different tables or passages of the source.

Experiments:
type B influenza virus = experiment: microbe, parasite or virus in culture; format: cell-based, B/USSA/100/83E; conditions: unidentified influenza virus, read-out: percentage of inhibition against infection; for inhibition at 4 µg/mL: 5 min; for inhibition at 1 µg/mL: 1 h
[1] = molecular target: hemaglutinin (HA) (Influenza A virus (A/Sichuan/2/1987(H3N2)), UniProt H9XCU1); experiment: Hemaglutinin activity of type A influenza virus after treatment (agglutination of red blood cells); format: biochemical, A/Sichuan/2/87(H3N2); conditions: FIG. 1, concentration dependence
type A influenza virus = experiment: microbe, parasite or virus in culture; format: cell-based, A/Sichuan/2/87(H3N2)
neuraminidase (NA) = neuraminidase (NA) (Influenza B virus (B/USSR/100/83), UniProt P16205); format: biochemical, type B influenza virus, B/USSA/100/83E; conditions: control 11.0
virus = experiment: Electron microscope observation of virus suspension with EGCg; conditions: EGCg added to suspension of the virus
Source text: The […] (PTA) dyeing method was utilized.

SMILES | inhibition at 4 µg/mL (type B influenza virus) | inhibition at 1 µg/mL (type B influenza virus) | hemaglutinin activity inhibiting power [1] | infection inhibiting power (type A influenza virus; FIG. 1, concentration dependence) | inhibition at 0.5 µg/mL (type A influenza virus; unidentified influenza virus, MDCK, 1 h, read-out: inhibition of infection) | number of plaques (type A influenza virus; virus treated 1 hour, 0.5 μg/ml) | NA activity (neuraminidase (NA); 50 μg/ml) | NA activity (neuraminidase (NA); 100 μg/ml) | behavior of the virus under electron microscope (virus)
O=C(O[C@@H]1Cc2c(O)cc(O)cc2O[C@@H]1c1cc(O)c(=O)c2c(O)c(O)cc([C@H]3Oc4cc(O)cc(O)c4C[C@H]3OC(=O)c3cc(O)c(O)c(O)c3)c2c1)c1cc(O)c(O)c(O)c1 [TF3, theaflavin digallate] | 100% | 100% | – | – | – | – | – | – | –
O=C(O[C@@H]1Cc2c(O)cc(O)cc2O[C@@H]1c1cc(O)c(O)c(O)c1)c1cc(O)c(O)c(O)c1 [EGCg, (-)epigallocatechin gallate] | 100% | 100% | depend on the concentration | depend on the concentration | 100% | zero | 8.00 | 5.10 | instantaneous formation of agglutinated lumps of the viruses
